Tests used:
[1] = test system: rat renal ischemia reperfusion (IR) model; experiment: in vivo drug efficacy in rat renal ischemia reperfusion (IR) model; design: species or system Crl : CD (SD) rats; conditions: subcutaneous osmotic pump
Procedure: The effect of the present compound on renal IR damage was evaluated using male rats.
Male Crl : CD (SD) rats aged 3 or 4 weeks were purchased from Charles River Laboratories Japan, and subjected to experiments. Animals were fed ad libitum with FR-2 (Funabashi Farm) at the time of arrival and with solid feed CE-2 (CLEA Japan) for one week before single kidney removal, and watered ad libitum.
After acclimation breeding, the right kidney was removed about 7 days before renal IR treatment. Specifically, the rats were allowed to inhale isoflurane (Mylan) for anesthesia, and administered buprenorphine (Otsuka Pharmaceutical) as an analgesic at 0.01 mg/kg. The right back was incised, the right kidney was removed, and then the incision was sutured.
Renal IR treatment was performed about 7 days after single kidney removal. Specifically, rats were anesthetized by intraperitoneal administration of sodium pentobarbital (Tokyo Chemical Industry) at a dose of 50 mg/kg, and administered buprenorphine as an analgesic at 0.01 mg/kg. The left abdomen was incised, and the renal artery and vein was sandwiched with a clamp (Natsume Seisakusho) to cause ischemia for 35 minutes. During ischemia, the rats were allowed to lie on a heat-retaining plate set at 38°C, and after 35 minutes, the clamp was removed for reperfusion. After visually confirming that blood flow to the kidney was recovered, the incision was sutured. The sham group was a sham-operated group in which neither ischemia nor reperfusion treatment was performed.
Animals were distributed on the day before renal IR treatment such that differences in the mean of the body weight in each group were not biased, and assigned animal numbers.
The compound of Example 7 (test substance) and physiological saline (Otsuka Pharmaceutical) as a vehicle were subcutaneously administered at 5 mL/kg using an injection needle 5 minutes before renal IR treatment. Saline was administered to the sham group in the same test. The administration dose is described in Table 16.
Specifically, the rats were allowed to inhale isoflurane for anesthesia on the day before renal IR treatment, and administered buprenorphine as an analgesic at 0.01 mg/kg. […] The incision was bonded with Dermabond Advanced (Johnson & Johnson). A pump containing a vehicle was also embedded in the sham group in the same test. The administration dose is described in Table 16.
After renal IR treatment, blood was collected through the tail vein on Day1, Day2, and Day3 to obtain serum. In addition, after renal IR treatment, rats were euthanized by exsanguination through the abdominal aorta under isoflurane anesthesia on Day3.
The respective concentrations of serum creatinine (sCre) and blood urea nitrogen (BUN) were measured using an automatic analyzer 7180 (Hitachi High-Tech).

EP4 = target: T1, EP4 (Homo sapiens, UniProt P35408); experiment: agonist activity on human EP4 receptor (cAMP production, EP4-CHO cells); assay type: cell-based
T1 construct: expressed in transfected cells; host or cells: CHO (EP4-CHO)
Procedure: (§1) Using CHO cells (EP1-CHO, EP2-CHO, EP3-Chem1, EP4-CHO and IP-CHO) on which various human prostanoid receptors were forcibly expressed, the agonist activity of the test compound on the various prostanoid receptors was examined using the intracellular calcium concentration for EP1 and EP3, and the intracellular cyclic AMP (hereinafter, abbreviated as cAMP) production amount for EP2, EP4 and IP as indices.
(§2) The test compound and control substances (PGE2 and iloprost) were dissolved in dimethyl sulfoxide (DMSO) to prepare a 10 mmol/L solution. […]
(§3) On the day of the measurement, EP2-CHO, EP4-CHO, and IP-CHO were obtained by thawing frozen cells. […] The cAMP concentration was measured using a cAMP HTRF HiRange kit (CIS bio International). […] After incubation for 1 hour, time-resolved fluorescence at 620 nm and 660 nm when excited at 340 nm was measured using Synergy Neo (Bioteck), and the ratio (TRF ratio) was determined to calculate the cAMP concentration from the calibration curve.

EP1 = target: T2, EP1 (Homo sapiens, UniProt P34995); experiment: agonist activity on human EP1 receptor (intracellular calcium concentration, EP1-CHO cells); assay type: cell-based
T2 construct: expressed in transfected cells; host or cells: CHO (EP1-CHO)
T2 sequence (P34995 1-402): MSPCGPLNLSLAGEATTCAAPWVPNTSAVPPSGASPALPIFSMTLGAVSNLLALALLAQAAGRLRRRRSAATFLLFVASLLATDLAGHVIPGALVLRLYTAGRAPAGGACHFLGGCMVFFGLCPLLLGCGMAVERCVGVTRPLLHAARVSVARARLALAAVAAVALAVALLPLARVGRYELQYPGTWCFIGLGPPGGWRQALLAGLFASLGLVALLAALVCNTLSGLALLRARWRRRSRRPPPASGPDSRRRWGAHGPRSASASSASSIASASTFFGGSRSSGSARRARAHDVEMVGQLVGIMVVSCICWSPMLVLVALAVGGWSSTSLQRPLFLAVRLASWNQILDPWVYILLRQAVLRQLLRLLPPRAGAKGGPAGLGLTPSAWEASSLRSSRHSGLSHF
Procedure, shortened: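 Calcium 6 dye loaded 1 h at room temperature in HBSS with 1% human serum albumin, 2 µmol/L indomethacin, 2.5 mmol/L probenecid, pH 7.4; agonists then added at various concentrations. Intracellular calcium read by fluorescence (ex 480/em 540 nm) in CHO cells expressing human EP1 or Chem1 cells expressing human EP3.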

EP3 receptor = target: T3, EP3 receptor (Homo sapiens, UniProt P43115); experiment: agonist activity on human EP3 receptor (intracellular calcium concentration, EP3-Chem1 cells); assay type: cell-based; conditions: agonist activity on the EP3 receptor
T3 construct: expressed in transfected cells; host or cells: EP3-Chem1
T3 sequence (P43115 1-390): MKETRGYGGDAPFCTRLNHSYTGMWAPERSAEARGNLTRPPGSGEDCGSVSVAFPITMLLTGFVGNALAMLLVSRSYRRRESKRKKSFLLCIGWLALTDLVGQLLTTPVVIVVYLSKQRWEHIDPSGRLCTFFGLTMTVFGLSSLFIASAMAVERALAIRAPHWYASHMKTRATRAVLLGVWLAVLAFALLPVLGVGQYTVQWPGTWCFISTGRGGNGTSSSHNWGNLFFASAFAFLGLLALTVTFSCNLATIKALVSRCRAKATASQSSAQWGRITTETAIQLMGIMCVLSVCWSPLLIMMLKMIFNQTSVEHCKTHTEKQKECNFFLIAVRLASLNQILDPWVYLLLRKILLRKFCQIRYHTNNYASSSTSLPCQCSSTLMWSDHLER
Procedure: as §1
The test compound and control substances (PGE2 and iloprost) were dissolved in dimethyl sulfoxide (DMSO) to prepare a 10 mmol/L solution. The prepared 10 mmol/L solution was thawed at the time of use, serially diluted using DMSO, and diluted with a buffer solution 1 for measurement (Hank's balanced salt solution (Thermofischer scientific) containing 1 w/v% human serum albumin (Sigma), 2 µmol/L indomethacin (Sigma), 2.5 mmol/L probenecid, and 10 mmol/L HEPES-NaOH (pH7.4)) or a buffer solution 2 for measurement (D-PBS (Nacalai Tesque) containing 0.1 w/v% human serum albumin, 2 µmol/L diclofenac (Sigma), and 1 mmol/L 3-isobutyl-1-methylxanthine (Sigma)) to perform experiments.

IP = target: T4, IP (Homo sapiens, UniProt P43119); experiment: agonist activity on human IP receptor (cAMP production, IP-CHO cells); assay type: cell-based
T4 construct: expressed in transfected cells; host or cells: CHO (IP-CHO)
Procedure: as §1, §2, §3

EP2 = target: T5, EP2 (Homo sapiens, UniProt P43116); experiment: agonist activity on human EP2 receptor (cAMP production, EP2-CHO cells); assay type: cell-based
T5 construct: expressed in transfected cells; host or cells: CHO (EP2-CHO)
Procedure: as §1, §2, §3

T1 sequence (P35408 whole entry): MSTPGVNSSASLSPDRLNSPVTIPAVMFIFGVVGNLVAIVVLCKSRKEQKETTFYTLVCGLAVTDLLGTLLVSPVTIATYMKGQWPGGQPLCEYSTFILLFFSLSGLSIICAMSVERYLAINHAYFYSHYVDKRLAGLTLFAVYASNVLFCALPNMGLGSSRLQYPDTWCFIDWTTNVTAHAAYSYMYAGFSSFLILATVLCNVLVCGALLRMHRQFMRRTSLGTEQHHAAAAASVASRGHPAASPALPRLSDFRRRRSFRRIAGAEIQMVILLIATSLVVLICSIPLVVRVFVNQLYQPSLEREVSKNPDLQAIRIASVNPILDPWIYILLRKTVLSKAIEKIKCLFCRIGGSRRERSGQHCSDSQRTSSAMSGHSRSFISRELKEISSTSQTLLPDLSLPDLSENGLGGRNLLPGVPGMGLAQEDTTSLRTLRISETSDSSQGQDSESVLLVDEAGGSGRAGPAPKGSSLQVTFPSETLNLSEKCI
T5 sequence (P43116 whole entry): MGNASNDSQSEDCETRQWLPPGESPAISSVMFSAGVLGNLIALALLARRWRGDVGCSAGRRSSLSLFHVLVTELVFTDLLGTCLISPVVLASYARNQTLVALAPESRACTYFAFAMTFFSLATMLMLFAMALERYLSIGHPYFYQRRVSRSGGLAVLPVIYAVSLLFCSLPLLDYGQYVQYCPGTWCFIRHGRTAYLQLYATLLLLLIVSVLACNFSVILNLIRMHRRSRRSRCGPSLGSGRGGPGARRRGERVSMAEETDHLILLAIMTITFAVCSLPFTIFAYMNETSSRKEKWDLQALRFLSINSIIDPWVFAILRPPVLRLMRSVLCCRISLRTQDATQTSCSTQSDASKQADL
T4 sequence (P43119 whole entry): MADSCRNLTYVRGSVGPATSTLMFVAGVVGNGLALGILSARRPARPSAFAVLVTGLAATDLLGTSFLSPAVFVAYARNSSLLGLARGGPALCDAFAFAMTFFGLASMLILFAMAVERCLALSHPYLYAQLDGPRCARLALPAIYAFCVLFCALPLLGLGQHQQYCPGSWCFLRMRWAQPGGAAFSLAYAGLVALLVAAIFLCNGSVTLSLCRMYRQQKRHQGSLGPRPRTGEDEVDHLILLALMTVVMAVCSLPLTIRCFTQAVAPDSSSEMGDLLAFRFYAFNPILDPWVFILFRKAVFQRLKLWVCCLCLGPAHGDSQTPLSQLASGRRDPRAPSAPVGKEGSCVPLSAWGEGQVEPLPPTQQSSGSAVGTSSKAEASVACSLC

EC50 (EP4): 1.5 µM
EC50 (EP1): > 10 µM
EC50 (EP3 receptor): 0.04 µM
EC50 (IP): > 10 µM
EC50 (EP2): > 10 µM
Substance: (1R,2R,3aS,10aR)-1-{(1E,3ξ)-3-[1-(2,5-difluorophenyl)cyclobutyl]-3-hydroxy-1-propen-1-yl}-2-hydroxy-2,3,3a,9,10,10a-hexahydro-1H-benzo[b]cyclopenta[f]oxepine-6-carboxylic acid [Example 7-30]
blood urea nitrogen (BUN) concentration mean ([1]; IR 0.3 µg/kg/min, day 1): 96.6
serum creatinine (sCre) concentration mean ([1]; IR 0.3 µg/kg/min, day 1): 1.78
blood urea nitrogen (BUN) concentration mean ([1]; IR 0.3 µg/kg/min, day 2): 94.3
serum creatinine (sCre) concentration mean ([1]; IR 0.3 µg/kg/min, day 2): 1.42
blood urea nitrogen (BUN) concentration mean ([1]; IR 0.3 µg/kg/min, day 3): 79.8
serum creatinine (sCre) concentration mean ([1]; IR 0.3 µg/kg/min, day 3): 1.00
blood urea nitrogen (BUN) concentration mean ([1]; IR 3.0 µg/kg/min, day 1): 89.5
serum creatinine (sCre) concentration mean ([1]; IR 3.0 µg/kg/min, day 1): 1.45
blood urea nitrogen (BUN) concentration mean ([1]; IR 3.0 µg/kg/min, day 2): 81.8
serum creatinine (sCre) concentration mean ([1]; IR 3.0 µg/kg/min, day 2): 1.10
blood urea nitrogen (BUN) concentration mean ([1]; IR 3.0 µg/kg/min, day 3): 70.7
serum creatinine (sCre) concentration mean ([1]; IR 3.0 µg/kg/min, day 3): 0.83
